Patent US8470817B2, “Compounds and methods for treatment of cancer” (Sunesis Pharmaceuticals, Inc., priority 2009, dated 2013)

Experiments:
[1] = tested on: A549 (Human lung adenocarcinoma epithelial cell line); experiment: MTT cell proliferation assay in A549 cell line; type: cell-based; details: A549 cells, treated 72 hr or 96 hr
Protocol: (§1) Exemplary assays include MTT cell proliferation assay in A549 (Human lung adenocarcinoma epithelial cell line), and HL60 (Human promyelocytic leukemia cells) cell lines. Suitable cells include those derived through cell culture from patient samples (cancer cell lines) as well as cells derived using routine molecular biology techniques, e.g., retroviral transduction, transfection, mutagenesis, etc.
(§2) In an exemplary MTT assay, approximately 1,000 cells (A549 or HL60) are plated into each well of a 96-well plate. Cells are treated in duplicate with test compounds in a dose titration manner, typically 3-fold dilutions, eleven points per assay, with starting concentrations of 20 or 10 μM) or with DMSO-control (0.2% final concentration). Cells are treated for 72 hours (hr) or 96 hr before being analyzed by the MTT method. After 72 hr or 96 hr of compound treatment, 10 μL of MTT dye solution (5 mg/mL MTT dye [Sigma #M2128] in water) is added to each well and incubated at 37° C. for 2 hr. Following incubation, 100 μL of lysis buffer (10% SDS, 0.01 N HCl in water) is added to each well and incubated overnight at 37° C. The plate is analyzed the following day using a colorimetric plate reader at 595 nm wavelength. Values obtained for treatment samples are normalized to control samples.

[2] = tested on: HL60 (Human promyelocytic leukemia cells); experiment: MTT cell proliferation assay in HL60 cell line; type: cell-based; details: HL-60, treated 72 hr or 96 hr
Protocol: as §1, §2

SMILES | IC50 [1] [µM] | IC50 [2] [µM]
CN(C)S(=O)(=O)c1cn(-c2nccs2)c2nc(N3CCN(C4CCCCC4)CC3)ccc2c1=O | < 3 | 3 to 10
O=C(O)c1cn(-c2nccs2)c2nc(N3CCOCC3)cnc2c1=O | > 10 | > 10
CC(C)(C)OC(=O)N1CCN(c2cnc3c(=O)c(C(=O)O)cn(-c4nccs4)c3n2)CC1 | > 10 | > 10
O=c1c(S(=O)(=O)N2CCCCC2)cn(-c2nccs2)c2nc(N3CCCC3)ccc12 | < 3 | > 10
COC1CCN(c2cnc3c(=O)c(C(=O)O)cn(-c4nccs4)c3n2)C1 (centres unmarked) | > 10 | > 10
O=c1c(S(=O)(=O)N2CCCCC2)cn(-c2nccs2)c2nc(N3CCN(c4cccnc4)CC3)ccc12 | < 3 | 3 to 10
CN(C)S(=O)(=O)c1cn(-c2nccs2)c2nc(N3CC[C@@H](N)C3)ccc2c1=O | < 3 | < 3
CN(C)S(=O)(=O)c1cn(-c2nccs2)c2nc(N3CCNCC3)ccc2c1=O | 3 to 10 | 3 to 10
CCN1CCN(c2cnc3c(=O)c(C(=O)O)cn(-c4nccs4)c3n2)CC1 | > 10 | > 10
C[C@@H]1CN(c2ccc3c(=O)c(S(=O)(=O)N4CCCCC4)cn(-c4nccs4)c3n2)C[C@H](C)N1 | < 3 | < 3
C[C@@H]1CN(c2ccc3c(=O)c(S(=O)(=O)N(C)C)cn(-c4nccs4)c3n2)CCN1 | 3 to 10 | > 10
O=c1c(S(=O)(=O)N2CCCCC2)cn(-c2nccs2)c2nc(N3CCC(N4CCCC4)CC3)ccc12 | < 3 | < 3
CCN(CC)C1CCN(c2cnc3c(=O)c(C(=O)O)cn(-c4nccs4)c3n2)C1 (centres unmarked) | > 10 | > 10
O=C(O)c1cn(-c2nccs2)c2nc(N3CCN(C4CCCCC4)CC3)cnc2c1=O | > 10 | > 10
C[C@@H]1CN(c2ccc3c(=O)c(S(=O)(=O)N4CCCCC4)cn(-c4nccs4)c3n2)CCN1 | < 3 | < 3
O=C(O)c1cn(-c2nccs2)c2nc(N3CCC(O)C3)cnc2c1=O (centres unmarked) | > 10 | > 10
CN1CCN(c2ccc3c(=O)c(S(=O)(=O)N4CCCCC4)cn(-c4nccs4)c3n2)CC1 | < 3 | > 10
COC[C@@H]1CCCN1c1ccc2c(=O)c(S(=O)(=O)N(C)C)cn(-c3nccs3)c2n1 | > 10 | > 10
O=c1c(S(=O)(=O)N2CCCCC2)cn(-c2nccs2)c2nc(N3CCN(C4CCCCC4)CC3)ccc12 | < 3 | < 3
O=c1c(S(=O)(=O)N2CCCCC2)cn(-c2nccs2)c2nc(N3CCNCC3)ccc12 | < 3 | < 3
C[C@@H]1CN(c2ccc3c(=O)c(S(=O)(=O)N(C)C)cn(-c4nccs4)c3n2)C[C@H](C)N1 | 3 to 10 | 3 to 10
CN(C)[C@@H]1CCN(c2ccc3c(=O)c(S(=O)(=O)N(C)C)cn(-c4nccs4)c3n2)C1 | < 3 | 3 to 10
CN1CCN(c2cnc3c(=O)c(C(=O)O)cn(-c4nccs4)c3n2)CC1 | > 10 | > 10
O=c1c(S(=O)(=O)N2CCCCC2)cn(-c2nccs2)c2nc(N3CCC(O)C3)ccc12 (centres unmarked) | < 3 | > 10

SMILES | IC50 [1] [µM] | IC50 [2] [µM]
O=C(O)c1cn(-c2nccs2)c2nc(N3CCN(c4ccccn4)CC3)cnc2c1=O | > 10 | > 10
CCN(CC)C1CCN(c2ccc3c(=O)c(S(=O)(=O)N4CCCCC4)cn(-c4nccs4)c3n2)C1 (centres unmarked) | < 3 | < 3
O=C(O)c1cn(-c2nccs2)c2nc(N3CCNCC3)cnc2c1=O | > 10 | > 10
O=c1c(S(=O)(=O)N2CCCCC2)cn(-c2nccs2)c2nc(N3CCN(c4ccc(C(F)(F)F)cc4)CC3)ccc12 | < 3 | 
COC[C@H]1CCCN1c1cnc2c(=O)c(C(=O)O)cn(-c3nccs3)c2n1 | > 10 | > 10
C[C@@H]1CN(c2cnc3c(=O)c(C(=O)O)cn(-c4nccs4)c3n2)CCN1 | > 10 | > 10
CN[C@H]1CN(c2ccc3c(=O)c(S(=O)(=O)N(C)C)cn(-c4nccs4)c3n2)C[C@@H]1OC | < 3 | < 3
CN[C@H]1CN(c2ccc3c(=O)c(S(=O)(=O)N4CCCCC4)cn(-c4nccs4)c3n2)C[C@@H]1OC | < 3 | < 3
COC[C@@H]1CCCN1c1cnc2c(=O)c(C(=O)O)cn(-c3nccs3)c2n1 | > 10 | > 10
CN(C)S(=O)(=O)c1cn(-c2nccs2)c2nc(N3CCCC3)ccc2c1=O | < 3 | > 10
COC[C@@H]1CCCN1c1ccc2c(=O)c(S(=O)(=O)N3CCCCC3)cn(-c3nccs3)c2n1 | 3 to 10 | > 10
CN(C)S(=O)(=O)c1cn(-c2nccs2)c2nc(N3CCOCC3)ccc2c1=O | > 10 | > 10
O=c1c(S(=O)(=O)N2CCCCC2)cn(-c2nccs2)c2nc(N3CCOCC3)ccc12 | 3 to 10 | > 10
CN(C)[C@@H]1CCN(c2ccc3c(=O)c(S(=O)(=O)N4CCCCC4)cn(-c4nccs4)c3n2)C1 | < 3 | < 3
CN(C)S(=O)(=O)c1cn(-c2nccs2)c2nc(N3CCN(c4ccccn4)CC3)ccc2c1=O | > 10 | > 10
COC[C@H]1CCCN1c1ccc2c(=O)c(S(=O)(=O)N3CCCCC3)cn(-c3nccs3)c2n1 | 3 to 10 | > 10
CN(C)S(=O)(=O)c1cn(-c2nccs2)c2nc(N3CCC(N4CCCC4)CC3)ccc2c1=O | 3 to 10 | 3 to 10
CN[C@H]1CN(c2cnc3c(=O)c(C(=O)O)cn(-c4nccs4)c3n2)C[C@@H]1OC | > 10 | > 10
C[C@@H]1CN(c2cnc3c(=O)c(C(=O)O)cn(-c4nccs4)c3n2)C[C@H](C)N1 | > 10 | > 10
O=C(O)c1cn(-c2nccs2)c2nc(N3CCCC3)cnc2c1=O | 3 to 10 | 3 to 10
CN(C)[C@@H]1CCN(c2cnc3c(=O)c(C(=O)O)cn(-c4nccs4)c3n2)C1 | > 10 | > 10
CC1CCCN1c1cnc2c(=O)c(C(=O)O)cn(-c3nccs3)c2n1 (centres unmarked) | 3 to 10 | > 10
N[C@@H]1CCN(c2ccc3c(=O)c(S(=O)(=O)N4CCCCC4)cn(-c4nccs4)c3n2)C1 | < 3 | < 3
N[C@@H]1CCN(c2cnc3c(=O)c(C(=O)O)cn(-c4nccs4)c3n2)C1 | > 10 | > 10
